Measurements: patent US20050267145A1, “Treatment for lung cancer” (priority 2004, published 2005)

Assays:
[1] = biological target: T1, 5-lipoxygenase (Mus musculus, UniProt P48999); assay: Sustained 5-lipoxygenase inhibition in vitro (LTC4 by RIA, mouse peritoneal macrophages, washout); type: cell-based; settings: 10 μM for 30 minutes, washed, six hours washout, zymosan 50 μg/mL challenge; for inhibition at 10 µM: read-out: Sustained Inhibition, 10 μM Initial
T1 construct: Resident mouse peritoneal macrophages were obtained from male CD-1 mice; endogenous in cells; host or cells: resident peritoneal macrophages from male CD-1 mice (Charles River Laboratories)
T1 sequence (P48999 1-674): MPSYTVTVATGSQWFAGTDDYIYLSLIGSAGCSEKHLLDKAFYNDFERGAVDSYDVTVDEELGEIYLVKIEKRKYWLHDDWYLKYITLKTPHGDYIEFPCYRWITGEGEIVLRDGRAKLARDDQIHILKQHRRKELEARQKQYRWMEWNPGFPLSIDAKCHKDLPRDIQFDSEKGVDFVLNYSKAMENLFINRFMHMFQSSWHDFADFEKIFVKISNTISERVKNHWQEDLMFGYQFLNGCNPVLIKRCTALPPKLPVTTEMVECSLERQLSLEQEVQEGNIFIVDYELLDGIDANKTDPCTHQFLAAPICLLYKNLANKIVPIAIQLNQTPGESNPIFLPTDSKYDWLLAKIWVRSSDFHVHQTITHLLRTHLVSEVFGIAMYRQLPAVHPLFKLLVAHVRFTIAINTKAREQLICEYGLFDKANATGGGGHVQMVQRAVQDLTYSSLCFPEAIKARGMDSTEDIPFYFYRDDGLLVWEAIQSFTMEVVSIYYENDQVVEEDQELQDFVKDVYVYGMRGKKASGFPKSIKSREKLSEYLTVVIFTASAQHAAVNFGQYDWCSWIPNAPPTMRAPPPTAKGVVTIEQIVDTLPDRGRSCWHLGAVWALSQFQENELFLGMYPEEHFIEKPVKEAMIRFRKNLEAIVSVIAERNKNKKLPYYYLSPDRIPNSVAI
Method: LTC4 was purchased from Biomol International, L.P., Plymouth Meeting, Pa.; ^3H-LTC4 was purchased from PerkinElmer Life and Analytical Sciences, Inc., Boston, Mass.; and antibody to LTC4 was purchased from Advanced Magnetics, Inc., Cambridge, Mass.
The retrieved lavage medium was added to tissue culture dishes and incubated for two hours at 37° C. in a humidified atmosphere containing 5% CO2. Following macrophage enrichment by adherence, the culture medium was removed and the resultant cell layer was washed twice with PBS, the medium (with heparin) was replaced with 1 mL of medium (without heparin), and the cells were then incubated overnight as described above. The following morning the medium was removed and the macrophages were washed twice with 2 mL PBS. One mL of fresh medium, devoid of serum, was then added.
Test compounds were added to the macrophage cultures to achieve a final concentration of 10 μM. The final DMSO concentration was 0.1% in for each test compound. Blank and control cultures were treated with DMSO only. After 30 minutes incubation, the macrophages were washed twice with 2 mL PBS. […] This treatment described in (b) was to allow for a washout period for the test compound.

[2] = test system: A23187-Stimulated LTB4 in Rat Lung; assay: A23187-stimulated LTB4 in rat lung in situ (MDI dosing); settings: 20 μg by single MDI activation into excised rat lung, A23187 challenge, LTB4 by RIA
Method: For the evaluation of test compounds using metered dose inhalers, dry compounds were dissolved in ethanol to a concentration of 2.33 mg/mL. 2.54 mL of this solution was added to a 20 g glass metered dose inhaler (MDI) vial and fitted with a continuous valve. The vials were cooled on dry ice, filled with 18 g of HFA 134a (DYMEL, E. I. Du Pont de Nemours and Co., Corpus Christi, Tex.), returned to dry ice, and the continuous valve was replaced with an intermittent valve that delivered 25 μL per activation. A single activation of a vial prepared as described delivered 20 μg of compound per activation. For experiments requiring different mass of compound per activation, the initial ethanol solution concentration was adjusted as necessary.
Male Sprague-Dawley rats (Charles River Laboratories, Inc. Wilmington, Mass.) weighing 250-300 grams were anesthetized with methoxyflurane in a closed container, the peritoneal cavity was exposed, and the animals were exsanguinated. The pleural cavity was exposed and the lung was removed with both the trachea and heart attached. The trachea was fitted with a cannula, secured with a ligature, and the distal end of the cannula was extended through a small hole in a #6 rubber stopper allowing for a tight seal. The lung, secured to the cannula and stopper, was then suspended in a 125 mL side arm Erlenmeyer flask filled to 100 mL with PBS warmed to 37° C. As such, access to the airways of the lung could be achieved through the cannula extending through the stopper to the outside of the flask. The flask was then placed in a 37° C. water bath.
An MDI, prepared as described above, containing test compound was fired with a single activation through the cannula and into the airways of the lung. The MDI were made to deliver 20 μg/shot, thus providing a dose of from about 0.06 mg/kg to about 0.08 mg/kg. Control lungs were similarly treated with an MDI containing propellant and co-solvent. The lungs were then incubated for 5 minutes at 37° C. Following this preincubation, 25 μL of 10 mM A23187 (Sigma Chemical Co., St. Louis, Mo.) was fired into the airways and the lung was incubated for an additional 10 minutes. Control lungs again were treated with propellant and co-solvent, only.
The lungs were then lavaged with 5 mL of ice cold PBS containing 1 mM EDTA. The recovered lavage fluid was centrifuged for 10 minutes at 150×g to sediment cells and LTB4 was quantified in the supernatant by specific RIA. The sensitivity of this assay was 155 pg/mL.

[3] = test system: pulmonary adenomas; assay: Benzo(a)pyrene-induced pulmonary adenomas in A/J mice; type: in vivo, mouse; settings: sixteen weeks; for Adenoma counts, groups 1H and 2H compared: high dose 425 μg/kg by inhalation
[4] = test system: lung tumors; settings: mice, administered orally; cited from earlier work
[5] = test system: MC-26 murine colon carcinoma cells; assay: Lung metastatic mouse model (MC-26 colon carcinoma cells i.v.), lung weight; type: in vivo; settings: statement on Table 3
Method: A lung metastatic mouse model was used to determine the anti-tumor activity of a 5-LO inhibitor (zileuton) in combination with an IRM. 12-18 week old CDF1 female mice (Charles River Laboratories, Inc.) weighing 20-22 grams were injected in the tail intravenously with 5×10^5 MC-26 murine colon carcinoma cells. IRM2 was prepared in a 0.03M citrate buffered saline solution, pH 4.0. Zileuton was prepared in a 10% ethanol in water solution. At four hours and 24 hours after tumor challenge, mice were injected intra-peritoneally with zileuton and IRM2 as indicated in Table 3. One group of mice (Vehicle) was untreated. Fourteen days after tumor challenge, mice were sacrificed and lungs were removed and weighed.

Row | Structure (SMILES) | inhibition at 10 µM [1] | Inhibition, 20 μg in situ [2] | also measured
1 | CCCCCN(O)C(=O)Nc1ccc(OCCCC)cc1 [Compound 2, 3-(4-butoxyphenyl)-1-hydroxy-1-pentylurea] | – | – | Adenoma counts, groups 1H and 2H compared [3]: similar
2 | O=C(Nc1ccccc1)N(O)CCCn1cccc1 [Compound 3, 1-hydroxy-1-(3-pyrrol-1-ylpropyl)-3-phenylurea] | 3% | 84 | –
3 | CCCCCN(O)C(=O)Nc1cc(OC)c(OC)c(OC)c1 [Compound 4, 1-hydroxy-1-pentyl-3-(3,4,5-trimethoxyphenyl)urea] | 24% | 84 | –
4 | CCC(CC)N(O)C(=O)Nc1ccc(Cc2ccc(NC(=O)N(O)C(CC)CC)cc2)cc1 [Compound 5] | – | 66 | Sustained Inhibition, 10 μM Initial [1]: 86
5 | CSc1ccc(NC(=O)N(O)C(C)C)cc1 [Compound 7, 1-hydroxy-1-(1-methylethyl)-3-[4-(methylthio)phenyl]urea] | 18% | – | –
6 | CSc1ccc(NC(=O)N(C)O)cc1 [Compound 9, 1-hydroxy-1-methyl-3-[4-(methylthio)phenyl]urea] | 0% | – | –
7 | CC(c1cc2ccccc2s1)N(O)C(N)=O (stereo not drawn) [Zileuton, zileuton, reference compound] | 28% | 42 | preventing lung tumors and slowing growth and progression of adenoma to carcinoma [4]: effective; effect on the number of pulmonary adenomas ([3]; oral, average 245 mg/kg in the diet): did not have any apparent effect; tumor growth [5]: inhibits tumor growth

Second part, led by results:

Row | inhibition at 10 µM [1] | Structure (SMILES) | Inhibition, 20 μg in situ [2] | also measured
8 | 100% | CCC(CC)N(O)C(=O)Nc1cccc(Oc2ccccc2)c1 [Compound 1, 1-hydroxy-1-(1-ethylpropyl)-3-(3-phenoxyphenyl)urea] | 100 | Adenoma counts, groups 1H and 2H compared [3]: similar
9 | 100% | CCCCCN(O)C(=O)Nc1ccc(Oc2ccccc2)cc1 [Compound 6, 1-hydroxy-3-(4-phenoxyphenyl)-1-pentylurea] | 88 | –
10 | 12% | CCC(CC)N(O)C(=O)Nc1ccccc1 [Compound 8, 1-hydroxy-1-(1-ethylpropyl)-3-phenylurea] | 72 | –
